Tests used:
[1] = biological target: T1, succinate dehydrogenase (Sus scrofa, UniProt A5GZW8+D0VWV4+Q007T0); assay: Enzyme activity assay, succinate dehydrogenase (DCIP reduction); assay type: biochemical, porcine; settings: read-out: Inhibitors (10 μM, SQR)
T1 construct: isolated from porcine hearts; from tissue; host or cells: porcine heart
Protocol: The inhibitory activities of control agents and target compounds on succinate dehydrogenase are determined.
The enzyme used in this test example is succinate dehydrogenase, which is isolated from porcine hearts.
The test method comprises the following steps: The total volume of the system is 1.8 ml, and the system contained 100 mM Na2HPO4—NaH2PO4 buffer (pH=7.4), 0.3 mM EDTA, 20 mM sodium succinate, 53 μM DCIP (2,6-dichloroindophenol sodium), and 2 nM succinate dehydrogenase. Thermostatic waterbath at 23° C. and magnetic stirring at 600 rpm. The decrease in the light absorption of the substrate DCIP is monitored at a wavelength of 600 nm and experimental points in a linear range are collected. Control substrate consumption not more than 5% of the experimental points. The molar extinction coefficient of DCIP is 21 mM^−1 cm^−1. And calculating the reduction yield of the DCIP in the reaction time, fitting a linear slope, and deducting the baseline slope to obtain the initial reaction speed.

[2] = test system: Sphaerotheca fuliginea; assay: Sphaerotheca fuliginea potting method; assay type: in vivo; settings: Podosphaera fuliginea; 100 mg/L; read-out: Sphaerotheca fuliginea control rating
Protocol: The fungicidal activity of the control agents and target compounds are determined. The test and investigation method refers to SOP-SC-1101 sphaerotheca fuliginea potting method in disinfectant rolls written by KANGZHUO and GUBAOGEN in “Standard operation specification for testing biological activity of pesticides”.

[3] = test system: Erysiphe graminis; assay: Erysiphe graminis potting method; assay type: in vivo; settings: Blumeria graminis; 100 mg/L; read-out: Erysiphe graminis control rating
Protocol: The fungicidal activity of the control agents and target compounds are determined. The test and investigation method refers to SOP-SC-1116 Erysiphe graminis potting method in disinfectant rolls written by KANGZHUO and GUBAOGEN in “Standard operation specification for testing biological activity of pesticides”.

T1 sequence (Q0QF01 43-664 partner): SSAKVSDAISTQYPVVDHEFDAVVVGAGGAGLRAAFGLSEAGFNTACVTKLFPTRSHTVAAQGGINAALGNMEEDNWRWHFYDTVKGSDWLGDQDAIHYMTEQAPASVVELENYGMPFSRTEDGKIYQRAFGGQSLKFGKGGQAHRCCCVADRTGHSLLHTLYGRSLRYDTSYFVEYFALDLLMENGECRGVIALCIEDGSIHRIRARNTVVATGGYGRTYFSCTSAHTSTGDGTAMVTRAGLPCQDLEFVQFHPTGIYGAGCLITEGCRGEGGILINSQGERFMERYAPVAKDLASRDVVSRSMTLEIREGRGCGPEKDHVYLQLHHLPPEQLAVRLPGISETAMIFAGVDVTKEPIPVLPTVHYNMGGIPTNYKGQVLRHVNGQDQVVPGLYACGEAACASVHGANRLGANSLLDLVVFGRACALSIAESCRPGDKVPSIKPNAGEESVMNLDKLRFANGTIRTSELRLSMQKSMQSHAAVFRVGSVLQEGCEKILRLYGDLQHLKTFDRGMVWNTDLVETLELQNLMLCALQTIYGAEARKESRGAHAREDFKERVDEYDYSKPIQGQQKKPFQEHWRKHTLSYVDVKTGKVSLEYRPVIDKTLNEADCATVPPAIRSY
T1 sequence (Q007T0 29-280): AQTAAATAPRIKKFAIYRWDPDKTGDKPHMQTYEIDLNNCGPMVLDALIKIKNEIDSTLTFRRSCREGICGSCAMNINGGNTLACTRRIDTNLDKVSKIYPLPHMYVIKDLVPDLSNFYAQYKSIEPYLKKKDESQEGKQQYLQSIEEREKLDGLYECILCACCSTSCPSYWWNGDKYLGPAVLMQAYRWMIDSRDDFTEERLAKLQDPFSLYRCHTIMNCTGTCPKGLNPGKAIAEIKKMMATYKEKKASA
T1 sequence (D0VWV4 30-169): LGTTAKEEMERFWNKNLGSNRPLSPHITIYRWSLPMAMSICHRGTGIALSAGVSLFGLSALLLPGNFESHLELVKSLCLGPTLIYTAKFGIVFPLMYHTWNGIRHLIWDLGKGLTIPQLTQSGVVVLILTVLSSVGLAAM
T1 sequence (A5GZW8 57-159 limits assumed): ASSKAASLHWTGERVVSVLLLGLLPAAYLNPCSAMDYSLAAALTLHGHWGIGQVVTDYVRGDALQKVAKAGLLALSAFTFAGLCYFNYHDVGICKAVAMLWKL

Row | Structure (SMILES) | inhibition at 10 µM [1] | pest or weed control at 100 µg/mL [2] | pest or weed control at 100 µg/mL [3]
1 | C=C(c1c(F)cccc1F)C(C)N(C(=O)c1c(C(F)F)nn(C)c1F)C1CC1 (stereo not drawn) [Compound 78] | > 90% | 80 to 100% | 80 to 100%
2 | CC(C(=C(Cl)Cl)c1ccc(Br)c(Br)c1)N(C(=O)c1c(C(F)F)nn(C)c1F)C1CC1 (stereo not drawn) [Compound 191] | > 90% | 80 to 100% | 80 to 100%
3 | C=C(c1cc(F)cc(F)c1)C(C)N(C(=O)c1c(C(F)F)nn(C)c1F)C1CC1 (stereo not drawn) [Compound 63] | > 90% | 80 to 100% | 80 to 100%
4 | C=C(c1ccc(C)cc1C)C(C)N(C(=O)c1c(C(F)F)nn(C)c1F)C1CC1 (stereo not drawn) [Compound 88] | > 90% | 80 to 100% | 80 to 100%
5 | C=C(c1ccc(S(=O)(=O)CC)cc1)C(C)N(C(=O)c1c(C(F)F)nn(C)c1F)C1CC1 (stereo not drawn) [Compound 107] | > 90% | 80 to 100% | 80 to 100%
6 | C=C(c1cc(C(C)(C)C)ccc1C)C(C)N(C(=O)c1c(C(F)F)nn(C)c1F)C1CC1 (stereo not drawn) [Compound 95] | > 90% | 80 to 100% | 80 to 100%
7 | C=C(c1cc(C(F)(F)F)ccc1Cl)C(C)N(C(=O)c1c(C(F)F)nn(C)c1F)C1CC1 (stereo not drawn) [Compound 100] | > 90% | 80 to 100% | 80 to 100%
8 | C=C(c1cccc(S(C)(=O)=O)c1)C(C)N(C(=O)c1c(C(F)F)nn(C)c1F)C1CC1 (stereo not drawn) [Compound 104] | > 90% | 80 to 100% | 80 to 100%
9 | C=C(CN(C(=O)c1c(C(F)F)nn(C)c1F)C1CC1)c1cc(F)c(Cl)cc1Cl [Compound 13] | > 90% | 80 to 100% | 80 to 100%
10 | C=C(c1cccc(S(=O)(=O)CC)c1)C(C)N(C(=O)c1c(C(F)F)nn(C)c1F)C1CC1 (stereo not drawn) [Compound 108] | > 90% | 80 to 100% | 80 to 100%
11 | C=C(c1ccccc1F)C(C)N(C(=O)c1c(C(F)F)nn(C)c1F)C1CC1 (stereo not drawn) [Compound 58] | > 90% | 80 to 100% | 80 to 100%
12 | C=C(CN(C(=O)c1c(C(F)F)nn(C)c1F)C1CC1)c1ccccc1S(C)(=O)=O [Compound 50] | > 90% | 80 to 100% | 80 to 100%
13 | C=C(c1cc(C)ccc1C(C)(C)C)C(C)N(C(=O)c1c(C(F)F)nn(C)c1F)C1CC1 (stereo not drawn) [Compound 94] | > 90% | 80 to 100% | 80 to 100%
14 | Cc1ccc(C(C)C)cc1C(=C(Cl)Cl)C(C)N(C(=O)c1c(C(F)F)nn(C)c1F)C1CC1 (stereo not drawn) [Compound 197] | > 90% | 80 to 100% | 80 to 100%
15 | C=C(CN(C(=O)c1c(C(F)F)nn(C)c1F)C1CC1)c1c(F)cc(F)cc1F [Compound 26] | > 90% | 80 to 100% | 80 to 100%
16 | C=C(c1ccc(S(C)(=O)=O)cc1Cl)C(C)N(C(=O)c1c(C(F)F)nn(C)c1F)C1CC1 (stereo not drawn) [Compound 103] | > 90% | 80 to 100% | 80 to 100%
17 | C=C(c1cccc(Br)c1)C(C)N(C(=O)c1c(C(F)F)nn(C)c1F)C1CC1 (stereo not drawn) [Compound 81] | > 90% | 80 to 100% | 80 to 100%
18 | Cn1cc(C(=O)N(CC(=C(Cl)Cl)c2ccc(Cl)cc2)C2CC2)c(C(F)F)n1 [Compound 114] | > 90% | 80 to 100% | 80 to 100%

Now from value to compound, other results behind:

Row | inhibition at 10 µM [1] | Structure (SMILES) | pest or weed control at 100 µg/mL [2] | pest or weed control at 100 µg/mL [3]
19 | > 90% | Cc1cccc(C(CN(C(=O)c2c(C(F)F)nn(C)c2F)C2CC2)=C(Cl)Cl)c1 [Compound 139] | 80 to 100% | 80 to 100%
20 | > 90% | Cn1nc(C(F)F)c(C(=O)N(CC(=C(Cl)Cl)c2cccc(C(F)(F)F)c2Cl)C2CC2)c1F [Compound 157] | 80 to 100% | 80 to 100%
21 | > 90% | Cn1nc(C(F)F)c(C(=O)N(CC(=C(Cl)Cl)c2ccc(S(C)(=O)=O)cc2Cl)C2CC2)c1F [Compound 159] | 80 to 100% | 80 to 100%
22 | > 90% | Cn1nc(C(F)F)c(C(=O)N(CC(=C(Cl)Cl)c2ccccc2S(C)(=O)=O)C2CC2)c1F [Compound 161] | 80 to 100% | 80 to 100%
23 | > 90% | CC(C(=C(Cl)Cl)c1cc(Cl)ccc1Cl)N(C(=O)c1c(C(F)F)nn(C)c1F)C1CC1 (stereo not drawn) [Compound 171] | 80 to 100% | 80 to 100%
24 | > 90% | Cn1nc(C(F)F)c(C(=O)N(CC(=C(Cl)Cl)c2cccc(S(C)(=O)=O)c2)C2CC2)c1F [Compound 160] | 80 to 100% | 80 to 100%
25 | > 90% | C=C(CN(C(=O)c1c(C(F)F)nn(C)c1F)C1CC1)c1ccc(Cl)c(Cl)c1 [Compound 10] | 80 to 100% | 80 to 100%
26 | > 90% | CCS(=O)(=O)c1cccc(C(CN(C(=O)c2c(C(F)F)nn(C)c2F)C2CC2)=C(Cl)Cl)c1 [Compound 164] | 80 to 100% | 80 to 100%
27 | > 90% | C=C(CN(C(=O)c1c(C(F)F)nn(C)c1F)C1CC1)c1ccc(F)cc1 [Compound 22] | 80 to 100% | 80 to 100%
28 | > 90% | Cn1nc(C(F)F)c(C(=O)N(CC(=C(Cl)Cl)c2ccc(C#CC3CC3)cc2Cl)C2CC2)c1F [Compound 165] | 80 to 100% | 80 to 100%
29 | > 90% | C=C(CN(C(=O)c1c(C(F)F)nn(C)c1F)C1CC1)c1cc(F)ccc1F [Compound 24] | 80 to 100% | 80 to 100%
30 | > 90% | Cn1nc(C(F)F)c(C(=O)N(CC(=C(Cl)Cl)c2cccc(F)c2)C2CC2)c1F [Compound 124] | 80 to 100% | 80 to 100%
31 | > 90% | Cn1nc(C(F)F)c(C(=O)N(CC(=C(Cl)Cl)c2ccc(Cl)c(Cl)c2)C2CC2)c1F [Compound 121] | 80 to 100% | 80 to 100%
32 | > 90% | C=C(CN(C(=O)c1c(C(F)F)nn(C)c1F)C1CC1)c1cc(Cl)ccc1Cl [Compound 14] | 80 to 100% | 80 to 100%
33 | > 90% | C=C(CN(C(=O)c1c(C(F)F)nn(C)c1F)C1CC1)c1cccc(F)c1 [Compound 21] | 70 to 80% | 80 to 100%
34 | > 90% | C=C(CN(C(=O)c1c(C(F)F)nn(C)c1F)C1CC1)c1cccc(C)c1 [Compound 32] | 70 to 80% | 80 to 100%
35 | > 90% | C=C(CN(C(=O)c1c(C(F)F)nn(C)c1F)C1CC1)c1ccc(Cl)cc1F [Compound 42] | 80 to 100% | 80 to 100%
36 | > 90% | CC(C(=C(Cl)Cl)c1cccc(Br)c1)N(C(=O)c1c(C(F)F)nn(C)c1F)C1CC1 (stereo not drawn) [Compound 186] | 80 to 100% | 80 to 100%
37 | > 90% | Cn1nc(C(F)F)c(C(=O)N(CC(=C(Cl)Cl)c2cccc(Cl)c2)C2CC2)c1F [Compound 117] | 80 to 100% | 80 to 100%
38 | > 90% | C=C(CN(C(=O)c1c(C(F)F)nn(C)c1F)C1CC1)c1cc(C)ccc1C(C)(C)C [Compound 39] | 70 to 80% | 80 to 100%
39 | > 90% | C=C(CN(C(=O)c1c(C(F)F)nn(C)c1F)C1CC1)c1cccc(C(F)(F)F)c1Cl [Compound 46] | 80 to 100% | 80 to 100%
40 | > 90% | C=C(CN(C(=O)c1c(C(F)F)nn(C)c1F)C1CC1)c1cccc(Br)c1Br [Compound 86] | 80 to 100% | 80 to 100%
41 | > 90% | Cc1cc(C)c(C(CN(C(=O)c2c(C(F)F)nn(C)c2F)C2CC2)=C(Cl)Cl)c(C)c1 [Compound 143] | 80 to 100% | 80 to 100%
42 | > 90% | Cn1nc(C(F)F)c(C(=O)N(CC(=C(Cl)Cl)c2c(Cl)cccc2Cl)C2CC2)c1F [Compound 120] | 80 to 100% | 80 to 100%
